From the NIST ThermoML archive (doi:10.1016/j.fluid.2016.08.002)
± gives the expanded uncertainty stated by the source.

Assay: xn = mol fraction of the nth substance listed
Details: Gas, Vibrating tube method

S [hydrogen sulfide] + C
Details	mass density [kg/m3]
253.4 K, 9215 kPa, x2 = 0.8685	128.92 ± 1.6
253.4 K, 9484 kPa, x2 = 0.8685	135.48 ± 1.7
253.41 K, 10167 kPa, x2 = 0.8685	150.17 ± 1.9
253.42 K, 10405 kPa, x2 = 0.8685	155.11 ± 2
253.42 K, 10879 kPa, x2 = 0.8685	164.94 ± 2.1
253.42 K, 11161 kPa, x2 = 0.8685	170.62 ± 2.1
253.43 K, 9711 kPa, x2 = 0.8685	140.67 ± 1.8
253.43 K, 9944 kPa, x2 = 0.8685	145.46 ± 1.9
253.44 K, 10674 kPa, x2 = 0.8685	160.71 ± 2.1
253.45 K, 11408 kPa, x2 = 0.8685	175.6 ± 2.2
253.45 K, 12503 kPa, x2 = 0.8685	195.9 ± 2.3
253.46 K, 11691 kPa, x2 = 0.8685	181.06 ± 2.2
253.46 K, 11951 kPa, x2 = 0.8685	186.09 ± 2.2
253.46 K, 12221 kPa, x2 = 0.8685	190.99 ± 2.2
253.46 K, 12710 kPa, x2 = 0.8685	199.55 ± 2.3
253.47 K, 13026 kPa, x2 = 0.8685	204.72 ± 2.4
253.48 K, 13361 kPa, x2 = 0.8685	209.99 ± 2.4
253.49 K, 13557 kPa, x2 = 0.8685	213.18 ± 2.4
253.5 K, 13904 kPa, x2 = 0.8685	217.77 ± 2.5
253.53 K, 14217 kPa, x2 = 0.8685	222.31 ± 2.5
253.53 K, 14605 kPa, x2 = 0.8685	227.86 ± 2.5
253.53 K, 27036 kPa, x2 = 0.8685	316.4 ± 1.3
253.54 K, 15328 kPa, x2 = 0.8685	236.23 ± 2.7
253.56 K, 16209 kPa, x2 = 0.8685	246.09 ± 2.8
253.56 K, 23487 kPa, x2 = 0.8685	300.68 ± 1.6
253.57 K, 26154 kPa, x2 = 0.8685	313.25 ± 1.3
253.58 K, 16612 kPa, x2 = 0.8685	250.04 ± 2.8
253.59 K, 17129 kPa, x2 = 0.8685	255.23 ± 2.7
253.6 K, 17589 kPa, x2 = 0.8685	259.35 ± 2.6
253.61 K, 18036 kPa, x2 = 0.8685	263.28 ± 2.5
253.61 K, 18480 kPa, x2 = 0.8685	267.15 ± 2.4
253.62 K, 18822 kPa, x2 = 0.8685	269.8 ± 2.3
253.63 K, 19390 kPa, x2 = 0.8685	274.47 ± 2.2
253.64 K, 19853 kPa, x2 = 0.8685	277.53 ± 2.1
253.66 K, 21081 kPa, x2 = 0.8685	286.3 ± 1.9
253.66 K, 21605 kPa, x2 = 0.8685	289.87 ± 1.8
253.67 K, 22087 kPa, x2 = 0.8685	292.82 ± 1.7
253.68 K, 22512 kPa, x2 = 0.8685	295.31 ± 1.7
253.68 K, 22918 kPa, x2 = 0.8685	297.52 ± 1.6
253.72 K, 26573 kPa, x2 = 0.8685	314.9 ± 1.3
272.97 K, 448 kPa, x2 = 0.714	4.32 ± 0.45
272.98 K, 925 kPa, x2 = 0.714	9.1 ± 0.51
272.98 K, 1959 kPa, x2 = 0.714	21.08 ± 0.65
272.99 K, 1499 kPa, x2 = 0.714	15.62 ± 0.59
272.99 K, 2470 kPa, x2 = 0.714	27.39 ± 0.71
272.99 K, 15974 kPa, x2 = 0.714	304.94 ± 2.5
272.99 K, 16531 kPa, x2 = 0.714	310.78 ± 2.5
273 K, 5009 kPa, x2 = 0.714	66.37 ± 0.99
273 K, 13055 kPa, x2 = 0.714	265.48 ± 2.3
273 K, 13551 kPa, x2 = 0.714	273.7 ± 2.3
273 K, 14019 kPa, x2 = 0.714	280.64 ± 2.4
273 K, 14532 kPa, x2 = 0.714	287.5 ± 2.4
273 K, 15457 kPa, x2 = 0.714	298.99 ± 2.4
273.01 K, 12511 kPa, x2 = 0.714	252.68 ± 2.2
273.01 K, 14977 kPa, x2 = 0.714	293.17 ± 2.4
273.02 K, 4006 kPa, x2 = 0.714	49.21 ± 0.89
273.02 K, 4495 kPa, x2 = 0.714	57.7 ± 0.95
273.02 K, 5020 kPa, x2 = 0.8197	51.69 ± 0.95
273.03 K, 5418 kPa, x2 = 0.714	73.5 ± 1
273.03 K, 16977 kPa, x2 = 0.714	315.19 ± 2.6
273.03 K, 29571 kPa, x2 = 0.714	387.72 ± 1.5
273.03 K, 30070 kPa, x2 = 0.714	389.49 ± 1.5
273.04 K, 220 kPa, x2 = 0.8197	1.87 ± 0.36
273.04 K, 5526 kPa, x2 = 0.8197	58.55 ± 0.99
273.05 K, 512 kPa, x2 = 0.8197	4.39 ± 0.42
273.05 K, 6060 kPa, x2 = 0.8197	66.2 ± 1
